Laboratory results published in US11376328B2, “Pharmaceutical composition” (Astellas Pharma Inc., priority 2017, dated 2022).
In brackets after ≈: the same amount, converted by molar mass.

Experiment: Solubility in water of the drug substance
Assay type: physicochemical
Conditions: drug substance as used
Text: The drug solubility in water of a drug may be determined, for example, in accordance with the method described in the General Notices of The Japanese Pharmacopoeia, Seventeenth Edition.

Row | solubility at 30 min (water, 20 °C, thermodynamic from solid) [µg/mL] | Solubility in water [µg/mL] | Compound
1 | 5 (≈ 10.4 µM) |  | Cc1cccc(C)c1N(CC(=O)Nc1ccc(-c2ncon2)cc1)C(=O)C1CCS(=O)(=O)CC1 [amenamevir]
2 |  | 4 (≈ 4.97 µM) | C=CC[C@@H]1/C=C(\C)C[C@H](C)C[C@H](OC)[C@H]2O[C@@](O)(C(=O)C(=O)N3CCCC[C@H]3C(=O)O[C@H](/C(C)=C/[C@@H]3CC[C@@H](O)[C@H](OC)C3)[C@H](C)[C@@H](O)CC1=O)[C@H](C)C[C@@H]2OC [tacrolimus]
